Laboratory results taken from patent publication US7473790B2 (Pfizer Inc., priority 2003, dated 2009).

What follows are compounds tested against T1, HCV polymerase (Hepatitis C virus genotype 1b, UniProt P26663) (assay: HCV polymerase primer/template-directed transcription assay (32P-GTP incorporation, filter binding)). Conditions: @ 50 uM compound; given where IC50 was impractical to calculate; read-out: percent inhibition.
T1 construct: 2.5 pmoles (0.15 μg) HCV polymerase protein in a final volume of 75 μL
T1 sequence (P26663 2420-3010): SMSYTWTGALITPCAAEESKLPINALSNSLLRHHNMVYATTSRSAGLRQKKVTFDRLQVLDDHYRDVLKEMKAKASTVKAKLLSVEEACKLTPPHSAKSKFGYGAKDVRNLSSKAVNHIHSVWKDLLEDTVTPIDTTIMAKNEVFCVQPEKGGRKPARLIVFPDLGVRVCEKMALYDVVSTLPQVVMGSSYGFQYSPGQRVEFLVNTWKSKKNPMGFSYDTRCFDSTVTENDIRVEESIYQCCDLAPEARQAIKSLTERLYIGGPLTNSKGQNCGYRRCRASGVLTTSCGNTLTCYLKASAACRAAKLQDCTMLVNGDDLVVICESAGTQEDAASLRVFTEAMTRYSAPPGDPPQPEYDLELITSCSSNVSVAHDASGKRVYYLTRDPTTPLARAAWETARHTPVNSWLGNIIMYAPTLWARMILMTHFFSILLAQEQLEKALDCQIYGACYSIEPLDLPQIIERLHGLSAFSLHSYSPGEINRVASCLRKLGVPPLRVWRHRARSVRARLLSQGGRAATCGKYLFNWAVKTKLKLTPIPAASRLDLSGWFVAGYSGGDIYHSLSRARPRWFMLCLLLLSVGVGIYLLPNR
Assay type: biochemical
Summary of the method: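 Recombinant genotype 1b polymerase (30 nM) extended biotin-dG12 primer on poly(rC)300 template with 1 μM GTP plus α-32P-GTP, pH 7.2, 10 mM MgCl2, 30 min at 30° C, 1% DMSO final. Products captured on DE filters and counted. IC50 fitted from triplicate cpm, with a tight-binding correction applied below 200 nM.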
`CCC1(C)CC(O)=C(Sc2nc3cc(Cl)ccc3n2C(C)C)C(=O)O1` (stereo not drawn) [C(20), 3-(5-Chloro-1-isopropyl-1H-benzoimidazol-2-ylsulfanyl)-6-ethyl-4-hydroxy-6-methyl-5,6-dihydro-pyran-2-one] was tested, and the inhibition at 50 µM was 11%. `CCC1(C)CC(O)=C(Sc2nc3nc(C)cc(C)n3n2)C(=O)O1` (stereo not drawn) [C(21), 3-(5,7-Dimethyl-[1,2,4]triazolo[1,5-a]pyrimidin-2-ylsulfanyl)-6-ethyl-4-hydroxy-6-methyl-5,6-dihydro-pyran-2-one] showed an inhibition at 50 µM of 12%.

Same assay, conditions: recombinant HCV polymerase; 30 minutes at 30° C.; concentration giving 50% inhibition of polymerase-directed transcription; read-out: IC50
Compound `COc1ccc(CCC2(C3CCCC3)CC(O)=C(Sc3nnc(-c4ccccc4)[nH]3)C(=O)O2)cc1Cl` (stereo not drawn) [C(22), 6-[2-(3-Chloro-4-methoxy-phenyl)-ethyl]-6-cyclopentyl-3-(5-phenyl-4H-[1,2,4]triazol-3-ylsulfanyl)-dihydro-pyran-2,4-dione] has an IC50 of 68 nM. Work on `COc1ccc(CCC2(C3CCCC3)CC(O)=C(Sc3nnc(-c4ccc(O)cc4)[nH]3)C(=O)O2)cc1Cl` (stereo not drawn) [C(23), 6-[2-(3-Chloro-4-methoxy-phenyl)-ethyl]-6-cyclopentyl-3-[5-(4-hydroxy-phenyl)-4H-[1,2,4]triazol-3-ylsulfanyl]-dihydro-pyran-2,4-dione] yielded an IC50 of 50 nM. Work on `CC(C)Oc1ccc(CCC2(C3CCCC3)CC(O)=C(Sc3nnc(-c4ccccc4)[nH]3)C(=O)O2)cc1F` (stereo not drawn) [C(24), 6-Cyclopentyl-6-[2-(3-fluoro-4-isopropoxy-phenyl)-ethyl]-4-hydroxy-3-(5-phenyl-4H-[1,2,4]triazol-3-ylsulfanyl)-5,6-dihydro-pyran-2-one] yielded an IC50 of 51 nM. In the case of `CC(C)Oc1ccc(CCC2(C3CCCC3)CC(O)=C(Sc3nc4cc(Cl)ccc4n3C(C)C)C(=O)O2)cc1Cl` (stereo not drawn) [C(25), 6-[2-(3-Chloro-4-isopropoxy-phenyl)-ethyl]-3-(5-chloro-1-isopropyl-1H-benzoimidazol-2-ylsulfanyl)-6-cyclopentyl-4-hydroxy-5,6-dihydro-pyran-2-one], the IC50 is reported as 20 nM. Compound `CC(C)Oc1ccc(CCC2(C3CCCC3)CC(O)=C(Sc3nc4cc(Cl)ccc4[nH]3)C(=O)O2)cc1Cl` (stereo not drawn) [C(26), 3-(5-Chloro-1H-benzoimidazol-2-ylsulfanyl)-6-[2-(3-chloro-4-isopropoxy-phenyl)-ethyl]-6-cyclopentyl-4-hydroxy-5,6-dihydro-pyran-2-one] has an IC50 of 130 nM. In the case of `O=C1OC(CCC2CCCCC2)(C2CCCC2)CC(O)=C1Sc1nnc(-c2ccncc2)[nH]1` (stereo not drawn) [C(27), 6-(2-Cyclohexyl-ethyl)-6-cyclopentyl-4-hydroxy-3-(5-pyridin-4-yl-4H-[1,2,4]triazol-3-ylsulfanyl)-5,6-dihydro-pyran-2-one], the IC50 is reported as 2500 nM. Compound `O=C1OC(CCC2CCCC2)(C2CCCC2)CC(O)=C1Sc1nnc(-c2ccncc2)[nH]1` (stereo not drawn) [C(28), 6-Cyclopentyl-6-(2-cyclopentyl-ethyl)-4-hydroxy-3-(5-pyridin-4-yl-4H-[1,2,4]triazol-3-ylsulfanyl)-5,6-dihydro-pyran-2-one] has an IC50 of 8000 nM. Compound `CC(C)n1c(SC2=C(O)CC(CCC3CCCC3)(C3CCCC3)OC2=O)nc2cc(Cl)ccc21` (stereo not drawn) [C(29), 3-(5-Chloro-1-isopropyl-1H-benzoimidazol-2-ylsulfanyl)-6-cyclopentyl-6-(2-cyclopentyl-ethyl)-4-hydroxy-5,6-dihydro-pyran-2-one] has an IC50 of 9300 nM. `O=C1OC(CCCC2CCCCC2)(C2CCCC2)CC(O)=C1Sc1nnc(-c2ccncc2)[nH]1` (stereo not drawn) [C(30), 6-(3-Cyclohexyl-propyl)-6-cyclopentyl-4-hydroxy-3-(5-pyridin-4-yl-4H-[1,2,4]triazol-3-ylsulfanyl)-5,6-dihydro-pyran-2-one] gave an IC50 of 550 nM. `CC(C)n1c(SC2=C(O)CC(CCCC3CCCCC3)(C3CCCC3)OC2=O)nc2cc(Cl)ccc21` (stereo not drawn) [C(31), 3-(5-Chloro-1-isopropyl-1H-benzoimidazol-2-ylsulfanyl)-6-(3-cyclohexyl-propyl)-6-cyclopentyl-4-hydroxy-5,6-dihydro-pyran-2-one] gave an IC50 of 510 nM. In the case of `O=C1OC(CCCCC2CCCCC2)(C2CCCC2)CC(O)=C1Sc1nnc(-c2ccncc2)[nH]1` (stereo not drawn) [C(32), 6-(4-Cyclohexyl-butyl)-6-cyclopentyl-4-hydroxy-3-(5-pyridin-4-yl-4H-[1,2,4]triazol-3-ylsulfanyl)-5,6-dihydro-pyran-2-one], the IC50 is reported as 270 nM. `COc1ccc(CCC2(C3CCCC3)CC(O)=C(Sc3nncn3C(C)(C)C)C(=O)O2)cc1Cl` (stereo not drawn) [C(34), 3-[(4-tert-butyl-4H-1,2,4-triazol-3-yl)thio]-6-[2-(3-chloro-4-methoxyphenyl)ethyl]-6-cyclopentyl-4-hydroxy-5,6-dihydro-2H-pyran-2-one] showed an IC50 of 53 nM. `CCn1cnnc1SC1=C(O)CC(CCc2ccc(OC)c(Cl)c2)(C2CCCC2)OC1=O` (stereo not drawn) [C(35), 6-[2-(3-chloro-4-methoxyphenyl)ethyl]-6-cyclopentyl-3-[(4-ethyl-4H-1,2,4-triazol-3-yl)thio]-4-hydroxy-5,6-dihydro-2H-pyran-2-one] was tested, and the IC50 was 70 nM. `COc1ccc(CCC2(C3CCCC3)CC(O)=C(Sc3nncn3C(C)C)C(=O)O2)cc1Cl` (stereo not drawn) [C(36), 6-[2-(3-chloro-4-methoxyphenyl)ethyl]-6-cyclopentyl-4-hydroxy-3-[(4-isopropyl-4H-1,2,4-triazol-3-yl)thio]-5,6-dihydro-2H-pyran-2-one] showed an IC50 of 79 nM. `COc1ccc(CCC2(C3CCCC3)CC(O)=C(Sc3nncn3-c3ccccc3)C(=O)O2)cc1Cl` (stereo not drawn) [C(37), 6-[2-(3-chloro-4-methoxyphenyl)ethyl]-6-cyclopentyl-4-hydroxy-3-[(4-phenyl-4H-1,2,4-triazol-3-yl)thio]-5,6-dihydro-2H-pyran-2-one] was tested, and the IC50 was 130 nM. Compound `COc1ccc(CCC2(C3CCCC3)CC(O)=C(Sc3nnnn3C)C(=O)O2)cc1Cl` (stereo not drawn) [C(38), 6-[2-(3-chloro-4-methoxyphenyl)ethyl]-6-cyclopentyl-4-hydroxy-3-[(1-methyl-1H-tetrazol-5-yl)thio]-5,6-dihydro-2H-pyran-2-one] has an IC50 of 280 nM. `CCn1nnnc1SC1=C(O)CC(CCc2ccc(OC)c(Cl)c2)(C2CCCC2)OC1=O` (stereo not drawn) [C(39), 6-[2-(3-chloro-4-methoxyphenyl)ethyl]-6-cyclopentyl-3-[(1-ethyl-1H-tetrazol-5-yl)thio]-4-hydroxy-5,6-dihydro-2H-pyran-2-one] was tested, and the IC50 was 220 nM. Work on `COc1ccc(CCC2(C3CCCC3)CC(O)=C(Sc3nc4cc(Cl)ccc4n3C(C)C)C(=O)O2)cc1Cl` (stereo not drawn) [C(40), 3-[(5-chloro-1-isopropyl-1H-benzimidazol-2-yl)thio]-6-[2-(3-chloro-4-methoxyphenyl)ethyl]-6-cyclopentyl-4-hydroxy-5,6-dihydro-2H-pyran-2-one] yielded an IC50 of 25 nM. `COc1ccc(CCC2(C3CCCC3)CC(O)=C(Sc3nc4ccccc4n3C)C(=O)O2)cc1Cl` (stereo not drawn) [C(41), 6-[2-(3-chloro-4-methoxyphenyl)ethyl]-6-cyclopentyl-4-hydroxy-3-[(1-methyl-1H-benzimidazol-2-yl)thio]-5,6-dihydro-2H-pyran-2-one] showed an IC50 of 170 nM. Work on `COc1ccc(CCC2(C3CCCC3)CC(O)=C(Sc3nnc(-c4ccco4)n3C)C(=O)O2)cc1Cl` (stereo not drawn) [C(42), 6-[2-(3-chloro-4-methoxyphenyl)ethyl]-6-cyclopentyl-3-{[5-(2-furyl)-4-methyl-4H-1,2,4-triazol-3-yl]thio}-4-hydroxy-5,6-dihydro-2H-pyran-2-one] yielded an IC50 of 13 nM. Compound `COc1ccc(CCC2(C3CCCC3)CC(O)=C(Sc3nc4ncccc4[nH]3)C(=O)O2)cc1Cl` (stereo not drawn) [C(43), 6-[2-(3-chloro-4-methoxyphenyl)ethyl]-6-cyclopentyl-4-hydroxy-3-(1H-imidazo[4,5-b]pyridin-2-ylthio)-5,6-dihydro-2H-pyran-2-one] has an IC50 of 35 nM. `COc1ccc(CCC2(C3CCCC3)CC(O)=C(Sc3nc4ccccc4n3C(C)C)C(=O)O2)cc1Cl` (stereo not drawn) [C(44), 6-[2-(3-chloro-4-methoxyphenyl)ethyl]-6-cyclopentyl-4-hydroxy-3-[(1-isopropyl-1H-benzimidazol-2-yl)thio]-5,6-dihydro-2H-pyran-2-one] was tested, and the IC50 was 180 nM. Work on `COc1ccc(CCC2(C3CCCC3)CC(O)=C(Sc3nc4ccccc4s3)C(=O)O2)cc1Cl` (stereo not drawn) [C(45), 3-(1,3-benzothiazol-2-ylthio)-6-[2-(3-chloro-4-methoxyphenyl)ethyl]-6-cyclopentyl-4-hydroxy-5,6-dihydro-2H-pyran-2-one] yielded an IC50 of 3200 nM. In the case of `COc1ccc(CCC2(C3CCCC3)CC(O)=C(Sc3nc4cnccc4[nH]3)C(=O)O2)cc1Cl` (stereo not drawn) [C(46), 6-[2-(3-chloro-4-methoxyphenyl)ethyl]-6-cyclopentyl-4-hydroxy-3-(1H-imidazo[4,5-c]pyridin-2-ylthio)-5,6-dihydro-2H-pyran-2-one], the IC50 is reported as 37 nM. Work on `COc1ccc(CCC2(C3CCCC3)CC(O)=C(Sc3nc4cccnc4s3)C(=O)O2)cc1Cl` (stereo not drawn) [C(47), 6-[2-(3-chloro-4-methoxyphenyl)ethyl]-6-cyclopentyl-4-hydroxy-3-([1,3]thiazolo[5,4-b]pyridin-2-ylthio)-5,6-dihydro-2H-pyran-2-one] yielded an IC50 of 240 nM. `COc1ccc(CCC2(C3CCCC3)CC(O)=C(Sc3nc4ccccc4n3-c3ccccc3)C(=O)O2)cc1Cl` (stereo not drawn) [C(48), 6-[2-(3-chloro-4-methoxyphenyl)ethyl]-6-cyclopentyl-4-hydroxy-3-[(1-phenyl-1H-benzimidazol-2-yl)thio]-5,6-dihydro-2H-pyran-2-one] showed an IC50 of 140 nM. In the case of `COc1ccc(CCC2(C3CCCC3)CC(O)=C(Sc3nc4cc(Cl)ccc4[nH]3)C(=O)O2)cc1Cl` (stereo not drawn) [C(49), 3-[(5-chloro-1H-benzimidazol-2-yl)thio]-6-[2-(3-chloro-4-methoxyphenyl)ethyl]-6-cyclopentyl-4-hydroxy-5,6-dihydro-2H-pyran-2-one], the IC50 is reported as 80 nM. In the case of `COc1ccc(CCC2(C3CCCC3)CC(O)=C(Sc3nnc(-c4ccncc4)[nH]3)C(=O)O2)cc1Cl` (stereo not drawn) [C(50), 6-[2-(3-chloro-4-methoxyphenyl)ethyl]-6-cyclopentyl-4-hydroxy-3-[(5-pyridin-4-yl-4H-1,2,4-triazol-3-yl)thio]-5,6-dihydro-2H-pyran-2-one], the IC50 is reported as 10 nM.
